Results as given in US20040077888A1, “Polyamine-mediated transfection” (The Regents of the University of California, priority 2002, published 2004).

How the values were obtained:
NIH 3T3 cells [1] = test: Transfection of NIH 3T3 cells, luciferase assay; format: cell-based; details: for luciferase expression: FIG. 4, vs dimyristoyl analogs with the same DNA-binding domain
Experimental: (§1) Cell Culture. CHO cells (ATCC, Rockville, Md.) were cultured in 75 cm^2 cell culture flasks with HAMS F12 media containing 10% bovine calf serum. NIH 3T3 cells were grown in Dulbecco's modified Eagle's medium with 10% fetal calf serum. The cells were maintained at 37° C. in a 5% CO2 environment. Twenty-four hours prior to transfection, cells were split into 24 well plates at 60% confluence.
(§2) Transfection of CHO and NIH 3T3 Cells. Liposomal suspensions of the polyamines were diluted with Dulbecco's modified essential media (serum free) to obtain the desired concentration. The suspensions were vortex mixed followed by addition of an appropriate quantity of DNA to yield lipoplex preparations at the desired N/P ratio. […] Immediately prior to transfection, the cells were prepared by aspiration of the growth media. The lipoplex preparation was added to the cells (200 μL, 1 μg DNA/well). After incubation for 2 hours, the lipoplex solution was aspirated and replaced with growth media (500 μL),
(§3) Luciferase Assay. Cells were lysed 24 hours after lipoplex administration by adding 200 μL lysis buffer. Luciferase activity was assayed using the Enhanced Luciferase Assay Kit and a Moonlight 2010 luminometer (Pharmingen, San Diego, Calif.). Luciferase activity was measured as Relative Light Units (RLUs) from an aliquot of the cell lysate over a 10 sec. period. A luciferase standard curve was produced using serial dilutions of purified firefly luciferase (Pharmingen, San Diego, Calif.). Using the standard curve, relative light units are converted to μg of luciferase per μL of sample assayed, and expressed as μg luciferase per 60,000 cells. To ensure luminometer consistency, the instrument is calibrated with a luminometer light standard containing ^14C-toluene (Pharmingen, San Diego, Calif.).

pCMV.FOX.Luc-2 = test: Ethidium bromide displacement assay (DNA condensation); format: binding; details: polyamine:cholesterol liposomes, FIGS. 1A-C
Experimental: The assay set forth in FIGS. 1A-C is based on a decrease in fluorescence that occurs when ethidium bromide is displaced from DNA by adding cationic liposomes. The lipoplexes were formed by adding a DNA-ethidium bromide solution to a solution containing variable amounts of polyamine:cholesterol liposomes. The lipoplexes were then treated with an equal volume of either water or a TRIS buffered solution at various pHs. The resulting fluorescence was then measured to determine the relative concentration of intercalated ethidium bromide.
Ethidium Bromide Displacement Assay. Ethidium bromide (153 μL of a 0.01% solution) was added to 96 μg of pCMV.FOX.Luc-2. This DNA-ethidium bromide solution was diluted to a final volume of 6 mL. Different concentrations of the polyamine liposomes were added to each well of a 96 well microplate, to which 50 μL of the DNA-ethidium bromide solution was added to obtain a final volume of 100 μL. After 5 min. the lipoplexes were treated with 100 μL of water or buffer and gently shaken. The resulting fluorescence at 250 nm excitation and 610 nm emission was measured using a SpectraMax XS microplate fluorometer (Molecular Devices, Oregon).

CHO cells [2] = test: Transfection of CHO cells, luciferase assay; format: cell-based; details: for luciferase expression: FIG. 3, vs dimyristoyl analogs with the same DNA-binding domain; for transfection activity compared with LipofectAMINE PLUS and TransFast: two cell lines (CHO, NIH-3T3), luciferase and GFP vector
Experimental: as §1, §2, §3

CHO cells [3] = test: GFP-annexin V flow cytometric assay in CHO cells; format: cell-based; details: for GFP expression: FIG. 5, polyamines vs dimyristoyl analogs with the same DNA-binding domain
Experimental: Cell Culture. CHO cells (ATCC, Rockville, Md.) were cultured in 75 cm^2 cell culture flasks with HAMS F12 media containing 10% bovine calf serum. […] The cells were maintained at 37° C. in a 5% CO2 environment. Twenty-four hours prior to transfection, cells were split into 24 well plates at 60% confluence.
Flow Cytometry. Cells transfected with the plasmid vector pNDeGFP were trypsinized 24 h after transfection and resuspended in Dulbecco's phosphate buffered saline (DPBS). The resuspended cells were incubated 30 min. in a solution (1:40 dilution of commercial stock) containing annexin V conjugated to biotin (CalTag, Burlingame, Calif.). After a second DPBS wash, the cells were resuspended 30 min. in a solution (1:400 dilution of commercial stock) of the Tri-color fluorophore conjugated to streptavidin (CalTag, Burlingame, Calif.). After a final DPBS wash, the cells were resuspended in 500 μL DPBS. The cells were then analyzed using a dual channel FACScan (Becton Dickinson, San Jose, Calif.) with a 15 mW, 488 nm argon laser.
Using standard techniques, FACScan gating was set with control cells that were prepared simultaneously with the transfected cells. […] GFP fluorescence was measured with a 530/30 band pass filter on channel FL1. The Tri-color fluorescence was measured with a 675 nm band pass filter on channel FL2. Transfection and mean expression were determined using the FL1 autofluorescence signal from control cells, compared to the transfected cell population.
To further determine the influence of the chemical linker on cytotoxicity, flow cytometry was used to measure cell viability. Using a GFP-annexin V flow cytometric assay, cytotoxicity was simultaneously evaluated in transfected and total cell populations.

NIH 3T3 cells [4] = test: GFP-annexin V flow cytometric assay in NIH 3T3 cells; format: cell-based; details: FIG. 6, polyamines vs dimyristoyl analogs with the same DNA-binding domain
Experimental: as §1, §2
Flow Cytometry. […] The cells were then analyzed using a dual channel FACScan (Becton Dickinson, San Jose, Calif.) with a 15 mW, 488 nm argon laser.
Using standard techniques, FACScan gating was set with control cells that were prepared simultaneously with the transfected cells. […] GFP fluorescence was measured with a 530/30 band pass filter on channel FL1. The Tri-color fluorescence was measured with a 675 nm band pass filter on […]. Transfection and mean expression were determined using the FL1 autofluorescence signal from control cells, compared to the transfected cell population.
Actinomycin-D (Sigma, St. Louis, Mo.) was used to treat non-transfected cells 24 hours prior to the assay to induce apoptosis. […] Non-treated cells were analyzed to establish baseline cytotoxicity and background auto-fluorescence. Each condition was transfected in triplicate and ten thousand cells were counted and simultaneously analyzed for GFP (transfection and expression) and Tri-color (annexin V) fluorescence. […]

Row | Structure (SMILES) | transfection activity among the polyamines (NIH 3T3 cells [1]) | DNA condensation (pCMV.FOX.Luc-2) | luciferase expression (CHO cells [2]; CHO cells) | transfection activity compared with LipofectAMINE PLUS and TransFast (CHO cells [2]) | luciferase expression (NIH 3T3 cells [1]) | GFP expression (CHO cells [3]) | GFP expression (NIH 3T3 cells [4]) | transfection activity among the polyamines (CHO cells [2]; CHO cells) | population of cells expressing GFP (GFP positive, Annexin V negative) (CHO cells [3]; FIG. 5 black bars)
1 | CCCCCCCCCCCCCC(=O)OCC(COC(=O)CCCCCCCCCCCCC)(COC(=O)CCNCCN(C)C)COC(=O)CCNCCN(C)C [polyamine 5] | superior to the other polyamines | – | – | – | – | – | – | – | –
2 | CCCCCCCC/C=C\CCCCCCCC(=O)OCC(COC(=O)CCCCCCC/C=C\CCCCCCCC)(COC(=O)CCNCCN(C)C)COC(=O)CCNCCN(C)C [polyamine 8] | superior to the other polyamines | condensed DNA with efficiency | higher levels | roughly comparable to LipofectAMINE PLUS and TransFast | higher levels | higher levels | higher levels | – | –
3 | CCCCCCCC/C=C\CCCCCCCC(=O)OCC(COC(=O)CCCCCCC/C=C\CCCCCCCC)(COC(=O)CCNCCCN(C)C)COC(=O)CCNCCCN(C)C [polyamine 9] | – | condensed DNA with efficiency | higher levels | roughly comparable to LipofectAMINE PLUS and TransFast | higher levels | higher levels | higher levels | most active analog | largest population of cells expressing GFP with extremely low cytotoxicity
4 | CCCCCCCC/C=C\CCCCCCCC(=O)OCC(COC(=O)CCCCCCC/C=C\CCCCCCCC)(COC(=O)CCNCCCCN(C)C)COC(=O)CCNCCCCN(C)C [polyamine 10] | – | condensed DNA with efficiency | higher levels | – | higher levels | higher levels | higher levels | – | –
